In a compilation of properties of binary mixtures (doi:10.1016/j.molliq.2015.01.031):

Experiment: xn = mol fraction of the nth substance listed
Details: 101 kPa

CCCC[n+]1ccn(C)c1.F[B-](F)(F)F + CC(O)CO
x2 = 0
Details	speed of sound [m/s]
303.15 K	1552.9
318.15 K	1518
323.15 K	1506.6

CCCC[n+]1ccn(C)c1.F[B-](F)(F)F + OCCCO
x2 = 0
Details	speed of sound [m/s]
298.15 K	1565.1
303.15 K	1553.2
308.15 K	1541.3
313.15 K	1529.7
318.15 K	1518.2
323.15 K	1506.8

CC(O)CO (stereo unspecified) + CCCC[n+]1ccn(C)c1.F[B-](F)(F)F
speed of sound [m/s]
Details	x1 = 0.1182	x1 = 0.2003	x1 = 0.3122	x1 = 0.4189	x1 = 0.5064	x1 = 0.6165	x1 = 0.695	x1 = 0.797	x1 = 0.8966	x1 = 1
298.15 K	–	–	–	1545.8	1541.1	1535.1	1530.5	1524.7	1518.5	1511
303.15 K	1548.1	1544.1	1538.9	–	1529	1522.8	–	1511.8	1505.3	1497.2
308.15 K	–	1532.3	–	1521.8	1516.9	1510.4	1505.3	1498.8	1491.8	1483.1
313.15 K	1524.6	1520.6	1515.2	1509.8	1504.7	–	1492.6	1485.7	–	1469
318.15 K	1513	1509	–	1497.9	1492.5	1485.5	1480	1472.7	–	1454.9
323.15 K	1501.6	1497.4	1491.8	1486.1	1480.5	–	1467.3	1459.6	1451.4	1440.7

OCCCO + CCCC[n+]1ccn(C)c1.F[B-](F)(F)F
speed of sound [m/s]
Details	x1 = 0.1026	x1 = 0.2072	x1 = 0.3172	x1 = 0.3943	x1 = 0.503	x1 = 0.6011	x1 = 0.7009	x1 = 0.8006	x1 = 0.8979	x1 = 1
298.15 K	1564.2	1563.5	1565.2	–	1574.2	1580.8	1590	–	1612.8	1628.8
303.15 K	–	1551.8	1553.4	1557.4	1562.4	1569	1578.2	1589.4	1601.1	1617.6
308.15 K	1540.8	1539.9	1541.5	1545.5	1550.6	1557.2	1566.5	1577.8	–	1606.2
313.15 K	1529.1	1528.2	–	–	–	1545.5	1554.8	1566.2	1578.1	1594.8
318.15 K	1517.6	1516.6	1518.1	1522.1	1527.1	–	–	1554.6	1566.6	1583.5
323.15 K	1506.2	1505.1	1506.5	–	1515.5	1522.2	1531.6	1543.1	–	1572.1
